From patent US8609659B2, “Substituted 3,8-diazabicyclo[3.2.1]octane compounds” (Neuroscienze Pharmaness S.C.A.R.L., priority 2009, dated 2013)
Like-named read-outs stand apart in the source and are kept apart here.

Target: T1, δ opioidergic receptors (Mus musculus, UniProt P32300)
T1 construct: from tissue; host or cells: CD1 mouse vas deferens segments (isolated organ)
Assay: Ex-vivo model, isolated organ: electrically induced contractions of mouse vas deferens
Settings: for % contraction inhibition: no antagonist, average of 7 experiments; for activity towards the delta opioid receptors: inhibition of contractions antagonized by ICI 17.4864 or Naltrindol; for inhibition: read-out: % contraction inhibition after addition of ICI 17.4864
Protocol: Said effect is antagonized by selective antagonists of the delta opioid receptors, for example the compounds ICI 17.4864 and Naltrindol.
For evaluating the activity of the compounds of the invention on the delta opioid receptors, the compounds respectively obtained in Examples 6.1 and 6.9 were subjected to tests carried out on the basis of the method described by E. J. Bilsky et al. (J.P.E.T., 1995 April; 273 (1):359-366). The experiments were carried out on samples of vas deferent segments taken from CD1 mice (25-30 grams) immediately after sacrifice. After the explant, the vas deferent segments were transferred in a Petri dish containing a Krebs oxygenated solution (118.2 mM NaCl, 4.75 mM KCl, 1.19 mM KH2PO4, 25.0 mM NaHCO3, 11.0 mM glucose, and 2.54 mM CaCl2) in order to proceed to the cleaning of the samples and their subsequent dissection in segments. Segments of vas deferens were so obtained having a length of 1.0-1.2 cm. They were thus immersed in tubs containing 10 ml of an oxygenated Krebs solution (95% O2 and 5% CO2) and kept at a temperature of 37° C. One end of the vas deferens segment was attached to a fixed support, at the tub bottom, while the other end was connected to an isometric force transducer (WPI Fort10, Biological Instruments, Besozzo, Italy) for the registration of the contractions induced by electric stimuli. The samples were then allowed to equilibrate for 60 minutes, changing the Krebs solution every 15 minutes. The samples were then subjected to treatment cycles wherein the electrical stimulation lasted 3 minutes, with an interval of 15 minutes before the following stimulation. The isometric contractions were evoked with sequences of 3 pulses (sequence frequency 0.1 Hz; pulse duration 2 ms) by means of platinum electrodes placed at the sides of the samples. The electrical stimuli were generated by a Grass S88K stimulator and amplified (multiplexing pulse booster 316S; Ugo Basile, Comerio, Italy). The musculature contractions of the vas deferens were monitored by a computer, recorded and analyzed by an analysis system (PowerLab 400). The compounds of the invention were added to the vas deferens in cumulative doses, in the absence or in the presence of one of the following antagonists of the delta opioid receptors: ICI 17.4864 and Naltrindol.
The effect of the tested compounds on the contractions of vas deferens musculature was expressed in percent, calculated by referring the amplitude of the contractions induced by the electrical stimulations after each addition of the test compound to the amplitude of the contractions obtained in the absence of the same compound (100%).
The results obtained with the compounds of Examples 6.1 and 6.9 are reported, respectively, in Table 2 and in Table 3. The results are an average of the data obtained in seven different experiments.

[1] = compound 10^−6 moles/litre + NTI 5 × 10^−8 M
[2] = compound 10^−7 moles/litre + NTI 5 × 10^−8 M
[3] = compound 10^−8 moles/litre + NTI 5 × 10^−8 M
[4] = compound 10^−9 moles/litre + NTI 5 × 10^−8 M
[5] = compound 10^−10 moles/litre + NTI 5 × 10^−8 M
[6] = compound 10^−11 moles/litre + NTI 5 × 10^−8 M

T1 sequence (P32300 whole entry): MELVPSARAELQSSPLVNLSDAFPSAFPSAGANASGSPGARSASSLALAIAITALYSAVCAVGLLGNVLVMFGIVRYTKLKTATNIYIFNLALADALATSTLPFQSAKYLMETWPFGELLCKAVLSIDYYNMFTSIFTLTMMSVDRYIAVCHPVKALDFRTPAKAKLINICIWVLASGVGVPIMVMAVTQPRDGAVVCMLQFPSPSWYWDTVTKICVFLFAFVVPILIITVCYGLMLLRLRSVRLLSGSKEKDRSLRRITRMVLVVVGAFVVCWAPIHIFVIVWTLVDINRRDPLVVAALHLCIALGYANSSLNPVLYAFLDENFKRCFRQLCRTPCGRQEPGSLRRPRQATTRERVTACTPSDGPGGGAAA

Structure (SMILES) | % contraction inhibition after addition of Naltrindol NTI [1] | % contraction inhibition (compound 10^−6 moles/litre) | % contraction inhibition after addition of Naltrindol NTI [2] | % contraction inhibition (compound 10^−7 moles/litre) | % contraction inhibition after addition of Naltrindol NTI [3] | % contraction inhibition (compound 10^−8 moles/litre) | % contraction inhibition after addition of Naltrindol NTI [4] | % contraction inhibition (compound 10^−9 moles/litre) | % contraction inhibition after addition of Naltrindol NTI [5] | % contraction inhibition (compound 10^−10 moles/litre) | % contraction inhibition after addition of Naltrindol NTI [6] | % contraction inhibition (compound 10^−11 moles/litre) | activity towards the delta opioid receptors | inhibition (compound 10^−6 moles/litre + ICI 17.4864 2 × 10^−6 M) | inhibition (compound 10^−7 moles/litre + ICI 17.4864 2 × 10^−6 M) | inhibition (compound 10^−8 moles/litre + ICI 17.4864 2 × 10^−6 M) | inhibition (compound 10^−9 moles/litre + ICI 17.4864 2 × 10^−6 M) | inhibition (compound 10^−10 moles/litre + ICI 17.4864 2 × 10^−6 M) | inhibition (compound 10^−11 moles/litre + ICI 17.4864 2 × 10^−6 M)
C=CCN1C2CCC1C1CCC2N1C(c1ccc(C(=O)N(CC)CC)cc1)c1cccc(OC)c1 (centres unmarked) [Example 6.1, 4-[(10-allyl-9,10-diazatricyclo[4.2.1.1^2,5]dec-9-yl)-(3-methoxyphenyl)methyl]-N,N-diethylbenzamide] | 41.0% | 86.0% | 24.9% | 71.5% | 19.0% | 51.0% | 11.5% | 32.0% | 5.0% | 16.0% | 4.0% | 5.5% | agonist activity | – | – | – | – | – | –
C=CCN1C2CCC1C1CCC2N1C(c1ccc(C(=O)N(CC)CC)cc1)c1cccc(O)c1 (centres unmarked) [Example 6.9, 4-[(10-allyl-9,10-diazatricyclo[4.2.1.1^2,5]dec-9-yl)-(3-hydroxyphenyl)methyl]-N,N-diethylbenzamide] | 67.5% | 85.0% | 29.0% | 83.0% | 8.9% | 70.0% | 5.2% | 40.0% | 4.5% | 17.0% | 3.0% | 7.5% | agonist activity | 52.2% | 28.2% | 9.5% | 4% | 2.5% | 1.8%
